Measured values as given in patent US20250120981A1, “MRTX1133 PHARMACEUTICAL COMPOSITIONS” (MIRATI THERAPEUTICS, INC., priority 2023, published 2025).
Several values for one entry are separate records, joined by “and”; a condition that tells them apart may be missing. Identical values can stand only once.

Test: Pharmacokinetics in humans, MRTX1133 formulation, oral, single and multiple doses
Type: in vivo
Settings: for AUCExtrap, Geo Mean: geometric mean of subjects
Method: The pharmacokinetics [PK] of the MRTX1133 formulation after oral administration has been evaluated in 25 subjects across 3 escalating dose frequencies under fasting conditions (200 mg twice daily [BID], 400 mg BID, and 800 mg BID), as well as evaluation of 400 mg BID when administered with a low-fat meal (i.e., under fed conditions). The mean (+standard deviation) single-dose and multiple-dose pharmacokinetic profiles of the evaluated doses are presented in FIG. 9 and FIG. 10, respectively. Individual single- and multiple-dose PK profiles can be found in FIG. 11. For all figures, the X-axis represents nominal time of sample collection (hours [h]) and the Y-axis represents plasma concentration (ng/mL). Table 10 lists PK data following the oral administration of a single dose and multiple doses of MRTX1133 formulation by dose level and subject.

[1] = multiple oral doses of 800 mg BID, fasted, individual subjects 1-8
[2] = single oral dose of 200 mg, fasted, individual subjects
[3] = single oral dose of 400 mg with a low-fat meal, individual subjects
[4] = single oral dose of 400 mg, fasted, individual subjects
[5] = single oral dose of 800 mg, fasted, individual subjects 1-8

C#Cc1c(F)ccc2cc(O)cc(-c3ncc4c(N5C[C@H]6CC[C@@H](C5)N6)nc(OC[C@@]56CCCN5C[C@H](F)C6)nc4c3F)c12 [MRTX1133, 4-(4-((1R,5S)-3,8-diazabicyclo[3.2.1]octan-3-yl)-8-fluoro-2-(((2R,7aS)-2-fluorohexahydro-1Hpyrrolizin-7a-yl)methoxy)pyrido[4,3-d]pyrimidin-7-yl)-5-ethynyl-6-fluoronaphthalen-2-ol]
AUC0-12 [1]: 227 ng·h/mL and 509 ng·h/mL and 130 ng·h/mL and 744 ng·h/mL and 248 ng·h/mL and 820 ng·h/mL and 264 ng·h/mL
AUC0-12 Accumulation Ratio [1]: 0.79 and 0.20 and 0.71 and 4.46 and 1.87 and 1.41 and 1.05
AUC0-last [1]: 227 ng · h/mL and 509 ng · h/mL and 130 ng · h/mL and 744 ng · h/mL and 248 ng · h/mL and 820 ng · h/mL and 4,458 ng · h/mL and 264 ng · h/mL
Cmax [1]: 38.2 ng/mL and 241 ng/mL and 34.4 ng/mL and 165 ng/mL and 29.8 ng/mL and 105 ng/mL and 812 ng/mL and 72.6 ng/mL
Cmax Accumulation Ratio [1]: 0.30 and 0.14 and 0.34 and 2.57 and 1.24 and 1.30 and 1.86 and 1.68
Peak to Trough Ratio [1]: 15.0 and 12.5 and 17.1 and 13.8 and 2.81 and 2.88 and 10.4 and 20.0
Tlast [1]: 12 h (7×) and 8 h
Tmax [1]: 6.0 h and 0.5 h (3×)
Plasma concentration (single oral dose of 200 mg, fasted, 0 h, individual subjects): BQL
Plasma concentration (single oral dose of 200 mg, fasted, 0.5 h, individual subjects): BQL
Plasma concentration (single oral dose of 200 mg, fasted, 1 h, individual subjects): 116 ng/mL and 6.88 ng/mL and 44.6 ng/mL (2×) and 9.39 ng/mL
Plasma concentration (single oral dose of 200 mg, fasted, 1.5 h, individual subjects): 49.8 ng/mL and 3.38 ng/mL and 57.9 ng/mL and 41.4 ng/mL and 42.7 ng/mL
Plasma concentration (single oral dose of 200 mg, fasted, 2 h, individual subjects): 20.4 ng/mL and 4.01 ng/mL and 26.7 ng/mL and 23.5 ng/mL and 122 ng/mL
Plasma concentration (single oral dose of 200 mg, fasted, 48 h, individual subjects): BQL
Plasma concentration (single oral dose of 200 mg, fasted, 72 h, individual subjects): BQL
Plasma concentration (single oral dose of 200 mg, fasted, 96 h, individual subjects): BQL
AUCExtrap, Geo Mean (single oral dose of 200 mg, fasted): 7.4%
AUC0-12 [2]: 140 ng·h/mL and 89.2 ng·h/mL and 98.1 ng·h/mL and 99.3 ng·h/mL and 585 ng·h/mL
AUC0-inf [2]: 157 ng · h/mL and 107 ng · h/mL (2×) and 103 ng · h/mL and 653 ng · h/mL
AUC0-last [2]: 152 ng·h/mL and 89.2 ng·h/mL and 98.1 ng·h/mL and 99.3 ng·h/mL and 585 ng·h/mL
AUCExtrap [2]: 3.42% and 16.3% and 4.88% and 7.77% and 10.4%
Cmax [2]: 116 ng/mL and 21.0 ng/mL and 57.9 ng/mL and 44.6 ng/mL and 122 ng/mL
Tlast [2]: 24 h and 12 h (3×) and 12^a h
Plasma concentration (single oral dose of 400 mg with a low-fat meal, 0 h, individual subjects): BQL
Plasma concentration (single oral dose of 400 mg with a low-fat meal, 1 h, individual subjects): 77.0 ng/mL and 18.7 ng/mL and 28.2 ng/mL and 85.1 ng/mL and 24.7 ng/mL
Plasma concentration (single oral dose of 400 mg with a low-fat meal, 2 h, individual subjects): 83.2 ng/mL and 39.9 ng/mL and 6.47 ng/mL and 76.4 ng/mL and 12.0 ng/mL
Plasma concentration (single oral dose of 400 mg with a low-fat meal, 3 h, individual subjects): 71.5 ng/mL and 3.84 ng/mL and 85.8 ng/mL and 13.6 ng/mL
Plasma concentration (single oral dose of 400 mg with a low-fat meal, 4 h, individual subjects): 65.9 ng/mL and 93.9 ng/mL and 2.43 ng/mL and 99.8 ng/mL and 36.5 ng/mL
Plasma concentration (single oral dose of 400 mg with a low-fat meal, 5 h, individual subjects): 41.4 ng/mL (2×) and 1.41 ng/mL and 163 ng/mL and 22.5 ng/mL
Plasma concentration (single oral dose of 400 mg with a low-fat meal, 6 h, individual subjects): 59.5 ng/mL and 16.9 ng/mL and 1.02 ng/mL and 125 ng/mL and 15.5 ng/mL
Plasma concentration (single oral dose of 400 mg with a low-fat meal, 12 h, individual subjects): BQL
AUCExtrap, Geo Mean (single oral dose of 400 mg with a low-fat meal): 6.3%
AUC0-12 [3]: 564 ng·h/mL and 305 ng·h/mL and 42.6 ng·h/mL and 889 ng·h/mL and 169 ng·h/mL
AUC0-inf [3]: 651 ng · h/mL and 317 ng · h/mL and 43.2 ng · h/mL and 1,351 ng · h/mL and 200 ng · h/mL
AUC0-last [3]: 564 ng · h/mL and 305 ng · h/mL and 42.6 ng · h/mL and 1,307 ng · h/mL and 169 ng · h/mL
AUCExtrap [3]: 13.4% and 3.77% and 3.88% and 3.25% and 15.3%
Cmax [3]: 83.2 ng/mL and 93.9 ng/mL and 28.2 ng/mL and 163 ng/mL and 36.5 ng/mL
Tlast [3]: 12 h (3×) and 8 h and 96 h
Tmax [3]: 5.0 h
Plasma concentration (single oral dose of 400 mg, fasted, 0 h, individual subjects): BQL
Plasma concentration (single oral dose of 400 mg, fasted, 0.5 h, individual subjects): BQL
AUCExtrap, Geo Mean (single oral dose of 400 mg, fasted): 7.6%
AUC0-inf [4]: 636 ng · h/mL and 98.4 ng · h/mL and 137 ng · h/mL and 169 ng · h/mL and 126 ng · h/mL and 1,950 ng · h/mL and 670 ng · h/mL
AUCExtrap [4]: 4.07% and 4.18% and 6.90% and 10.7% and 6.70% and 13.0% and 13.4%
Cmax [4]: 62.1 ng/mL and 62.0 ng/mL and 66.3 ng/mL and 71.0 ng/mL and 37.0 ng/mL and 281 ng/mL and 188 ng/mL
Tlast [4]: 96 h and 12 h (6×)
Tmax [4]: 0.5 h
Plasma concentration (single oral dose of 800 mg, fasted, 0 h, individual subjects): BQL
Plasma concentration (single oral dose of 800 mg, fasted, 48 h, individual subject): BQL
Plasma concentration (single oral dose of 800 mg, fasted, 72 h, individual subject): BQL
Plasma concentration (single oral dose of 800 mg, fasted, 96 h, individual subject): BQL
AUCExtrap (single oral dose of 800 mg, fasted, Geo Mean of subjects): 5.6%
AUC0-12 [5]: 287 ng · h/mL and 2,573 ng · h/mL and 182 ng · h/mL and 167 ng · h/mL and 133 ng · h/mL and 583 ng · h/mL and 3,221 ng · h/mL and 251 ng · h/mL
AUC0-inf [5]: 317 ng · h/mL and 2,665 ng · h/mL and 185 ng · h/mL and 181 ng · h/mL and 141 ng · h/mL and 708 ng · h/mL and 4,902 ng · h/mL
AUC0-last [5]: 315 ng · h/mL and 2,573 ng · h/mL and 182 ng · h/mL and 167 ng · h/mL and 133 ng · h/mL and 583 ng · h/mL and 4,421 ng · h/mL and 251 ng · h/mL
AUCExtrap [5]: 4.05% and 3.44% and 1.58% and 8.08% and 5.77% and 17.7% and 9.81%
Cmax [5]: 129 ng/mL and 1,760 ng/mL and 101 ng/mL and 64.3 ng/mL and 24.0 ng/mL and 80.5 ng/mL and 437 ng/mL and 43.3 ng/mL
Tlast [5]: 24 h (2×) and 12 h (6×)
Tmax [5]: 0.5 h and 12 h
